pEC50, pKi: −log10 of the molar value.
Assays:
[1] = target: T1, 5-hydroxytryptamine receptor 4 (Rattus norvegicus, UniProt Q62758); experiment: Compound was tested for agonist activity at the 5-hydroxytryptamine 4 receptor in the rat tunica muscularis mucosae (TMM) assay; IN = Inactive; format: functional, tissue-based, Muscularis mucosa
[2] = target: T1, 5-hydroxytryptamine receptor 4; experiment: Compound was tested for agonist activity at the 5-hydroxytryptamine 4 receptor in the rat tunica muscularis mucosae (TMM) assay; format: functional, tissue-based, Muscularis mucosa
[3] = target: Serotonin 1 (5-HT1) receptor (Rattus norvegicus, UniProt P28564+P30940+P19327+P28565); experiment: Compound was evaluated for 5-hydroxytryptamine 1 receptor binding; format: protein assay
[4] = target: Serotonin 2 (5-HT2) receptor (Homo sapiens, UniProt P41595+P28223+P28335); experiment: Compound was evaluated for 5-hydroxytryptamine 2 receptor binding; format: protein assay
[5] = target: T1, 5-hydroxytryptamine receptor 4; experiment: Tested for agonist activity at the 5-hydroxytryptamine 4 receptor in the rat tunica muscularis mucosae (TMM) assay of racemate mixture; format: functional
[6] = target: Serotonin 3 (5-HT3) receptor; experiment: Compound was evaluated for 5-hydroxytryptamine 3 receptor binding; format: protein-complex assay
[7] = target: T2, Adrenergic receptor alpha-2 (Homo sapiens, UniProt P08913+P18825+P18089); experiment: Compound was evaluated for alpha-2 adrenergic receptor binding; format: protein assay
T2 sequence (P08913 whole entry): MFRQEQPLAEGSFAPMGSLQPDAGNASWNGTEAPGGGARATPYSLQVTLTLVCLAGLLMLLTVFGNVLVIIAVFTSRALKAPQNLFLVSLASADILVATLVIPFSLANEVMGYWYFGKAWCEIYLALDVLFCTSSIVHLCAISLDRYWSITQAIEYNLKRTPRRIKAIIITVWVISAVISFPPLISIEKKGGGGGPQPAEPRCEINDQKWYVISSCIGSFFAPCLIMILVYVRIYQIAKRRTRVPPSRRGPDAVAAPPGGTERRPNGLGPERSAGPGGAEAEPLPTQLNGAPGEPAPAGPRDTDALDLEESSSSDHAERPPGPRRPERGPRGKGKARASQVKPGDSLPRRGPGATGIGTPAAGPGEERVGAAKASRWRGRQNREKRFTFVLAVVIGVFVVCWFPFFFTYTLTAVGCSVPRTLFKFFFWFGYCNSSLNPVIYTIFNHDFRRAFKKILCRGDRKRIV
T2 sequence (P18825 whole entry): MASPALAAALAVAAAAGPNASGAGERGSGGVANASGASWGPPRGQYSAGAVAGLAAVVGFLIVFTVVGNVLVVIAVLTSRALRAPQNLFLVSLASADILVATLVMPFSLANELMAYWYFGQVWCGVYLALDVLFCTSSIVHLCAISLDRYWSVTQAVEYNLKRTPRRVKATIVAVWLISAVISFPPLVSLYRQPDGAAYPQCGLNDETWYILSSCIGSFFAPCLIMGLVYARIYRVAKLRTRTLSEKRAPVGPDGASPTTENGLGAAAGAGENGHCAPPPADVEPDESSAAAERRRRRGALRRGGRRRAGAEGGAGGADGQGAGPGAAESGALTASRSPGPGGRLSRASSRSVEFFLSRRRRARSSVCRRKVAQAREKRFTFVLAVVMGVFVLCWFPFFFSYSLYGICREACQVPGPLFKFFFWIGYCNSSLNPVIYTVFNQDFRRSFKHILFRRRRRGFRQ
T2 sequence (P18089 whole entry): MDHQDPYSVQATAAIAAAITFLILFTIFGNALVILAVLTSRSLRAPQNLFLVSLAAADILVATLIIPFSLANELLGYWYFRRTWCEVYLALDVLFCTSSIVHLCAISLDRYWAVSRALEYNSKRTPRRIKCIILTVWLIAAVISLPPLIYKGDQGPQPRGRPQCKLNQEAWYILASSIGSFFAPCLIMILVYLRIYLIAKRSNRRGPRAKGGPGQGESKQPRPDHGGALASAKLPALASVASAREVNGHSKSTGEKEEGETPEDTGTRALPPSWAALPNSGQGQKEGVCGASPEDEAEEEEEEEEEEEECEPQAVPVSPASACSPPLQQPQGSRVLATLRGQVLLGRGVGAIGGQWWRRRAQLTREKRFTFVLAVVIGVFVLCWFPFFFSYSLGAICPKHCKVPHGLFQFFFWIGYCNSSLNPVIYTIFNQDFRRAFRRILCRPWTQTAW

[8] = target: T3, Adrenergic receptor alpha-1 (Homo sapiens, UniProt P35348+P25100+P35368); experiment: Compound was evaluated for alpha-1 adrenergic receptor binding; format: protein assay
T3 sequence (P35348 whole entry): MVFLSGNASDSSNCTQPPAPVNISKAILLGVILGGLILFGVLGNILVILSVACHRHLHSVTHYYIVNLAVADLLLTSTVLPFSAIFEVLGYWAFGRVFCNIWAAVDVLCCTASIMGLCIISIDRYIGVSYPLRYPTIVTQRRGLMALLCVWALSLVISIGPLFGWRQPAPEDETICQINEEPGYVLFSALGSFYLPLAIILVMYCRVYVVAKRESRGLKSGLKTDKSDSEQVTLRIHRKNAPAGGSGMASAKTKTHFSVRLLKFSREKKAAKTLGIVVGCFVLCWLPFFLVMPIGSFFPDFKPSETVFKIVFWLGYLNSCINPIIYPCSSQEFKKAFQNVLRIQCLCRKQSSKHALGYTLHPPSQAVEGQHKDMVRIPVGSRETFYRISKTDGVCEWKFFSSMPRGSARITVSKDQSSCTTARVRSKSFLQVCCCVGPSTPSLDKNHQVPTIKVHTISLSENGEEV
T3 sequence (P25100 whole entry): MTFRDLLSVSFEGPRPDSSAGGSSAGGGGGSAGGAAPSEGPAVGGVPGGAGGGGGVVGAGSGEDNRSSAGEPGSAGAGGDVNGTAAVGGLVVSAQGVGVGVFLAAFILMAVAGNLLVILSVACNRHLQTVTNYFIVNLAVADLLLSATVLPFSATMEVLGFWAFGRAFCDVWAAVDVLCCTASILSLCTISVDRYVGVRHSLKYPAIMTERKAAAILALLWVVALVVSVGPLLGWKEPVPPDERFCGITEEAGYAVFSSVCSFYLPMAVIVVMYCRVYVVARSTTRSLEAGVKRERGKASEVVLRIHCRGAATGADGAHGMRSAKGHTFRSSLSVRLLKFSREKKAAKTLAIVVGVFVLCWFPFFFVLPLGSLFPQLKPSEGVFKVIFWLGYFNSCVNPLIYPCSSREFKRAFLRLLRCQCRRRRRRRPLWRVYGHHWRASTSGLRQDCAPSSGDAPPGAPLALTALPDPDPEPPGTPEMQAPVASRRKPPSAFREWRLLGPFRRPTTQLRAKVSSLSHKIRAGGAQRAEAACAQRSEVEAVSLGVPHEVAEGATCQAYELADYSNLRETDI
T3 sequence (P35368 whole entry): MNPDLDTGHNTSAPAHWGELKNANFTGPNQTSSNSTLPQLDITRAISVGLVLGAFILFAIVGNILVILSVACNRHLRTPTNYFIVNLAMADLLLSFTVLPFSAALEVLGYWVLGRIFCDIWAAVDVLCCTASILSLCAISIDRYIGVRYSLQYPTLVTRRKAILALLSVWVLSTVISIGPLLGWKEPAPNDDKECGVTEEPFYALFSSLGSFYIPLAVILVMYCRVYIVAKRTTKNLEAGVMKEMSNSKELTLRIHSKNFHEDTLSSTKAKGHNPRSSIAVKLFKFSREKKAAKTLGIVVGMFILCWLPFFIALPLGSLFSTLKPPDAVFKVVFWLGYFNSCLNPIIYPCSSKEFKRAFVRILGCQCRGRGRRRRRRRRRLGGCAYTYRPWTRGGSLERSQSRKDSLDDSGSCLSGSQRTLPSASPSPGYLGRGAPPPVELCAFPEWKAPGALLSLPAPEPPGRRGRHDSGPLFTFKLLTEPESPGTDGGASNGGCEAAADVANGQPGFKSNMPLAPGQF

Adrenergic receptor beta = Adrenergic receptor beta (Homo sapiens, UniProt P08588+P07550+P13945); experiment: Compound was evaluated for Beta adrenergic receptor binding; format: protein assay
D(1A) dopamine receptor = D(1A) dopamine receptor (Homo sapiens, UniProt P21728); experiment: Compound was evaluated for Dopamine receptor D1 binding
D(1A) dopamine receptor, sequence (P21728 whole entry): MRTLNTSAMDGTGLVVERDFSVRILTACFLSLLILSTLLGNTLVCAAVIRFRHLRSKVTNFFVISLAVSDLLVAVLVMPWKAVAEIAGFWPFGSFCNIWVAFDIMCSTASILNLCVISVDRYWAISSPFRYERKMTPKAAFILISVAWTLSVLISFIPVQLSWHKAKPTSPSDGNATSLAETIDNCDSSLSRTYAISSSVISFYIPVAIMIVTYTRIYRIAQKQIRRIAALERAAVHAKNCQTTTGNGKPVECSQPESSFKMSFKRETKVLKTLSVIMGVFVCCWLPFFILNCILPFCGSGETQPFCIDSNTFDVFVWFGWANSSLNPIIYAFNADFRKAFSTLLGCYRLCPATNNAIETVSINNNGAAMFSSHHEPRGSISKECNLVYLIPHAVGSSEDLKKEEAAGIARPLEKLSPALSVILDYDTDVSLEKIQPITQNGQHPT

D(2) dopamine receptor = D(2) dopamine receptor (Homo sapiens, UniProt P14416); experiment: Compound was evaluated for Dopamine receptor D2 binding
D(2) dopamine receptor, sequence (P14416 whole entry): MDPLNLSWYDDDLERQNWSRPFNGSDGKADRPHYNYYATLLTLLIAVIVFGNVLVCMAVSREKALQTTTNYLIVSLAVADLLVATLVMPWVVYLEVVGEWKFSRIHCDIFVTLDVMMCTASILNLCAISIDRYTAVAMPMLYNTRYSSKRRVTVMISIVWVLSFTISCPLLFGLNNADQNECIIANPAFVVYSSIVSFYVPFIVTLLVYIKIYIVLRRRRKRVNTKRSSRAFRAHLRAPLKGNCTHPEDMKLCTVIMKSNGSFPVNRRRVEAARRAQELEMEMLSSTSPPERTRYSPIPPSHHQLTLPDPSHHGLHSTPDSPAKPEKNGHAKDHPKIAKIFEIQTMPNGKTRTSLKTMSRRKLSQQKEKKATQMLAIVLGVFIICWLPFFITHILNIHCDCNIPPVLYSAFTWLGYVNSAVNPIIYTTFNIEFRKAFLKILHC

T1 sequence (Q62758 whole entry): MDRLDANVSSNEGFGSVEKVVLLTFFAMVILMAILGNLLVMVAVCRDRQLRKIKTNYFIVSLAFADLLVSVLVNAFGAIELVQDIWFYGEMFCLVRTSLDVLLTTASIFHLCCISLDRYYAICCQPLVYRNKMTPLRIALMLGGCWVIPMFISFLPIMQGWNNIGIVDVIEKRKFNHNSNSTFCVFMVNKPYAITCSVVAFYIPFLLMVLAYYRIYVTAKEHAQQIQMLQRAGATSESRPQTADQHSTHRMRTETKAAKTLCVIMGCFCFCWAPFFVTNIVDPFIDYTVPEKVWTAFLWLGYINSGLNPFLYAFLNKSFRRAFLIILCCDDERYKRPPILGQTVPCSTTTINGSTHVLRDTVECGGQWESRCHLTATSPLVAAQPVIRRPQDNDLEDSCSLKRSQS

SMILES	EC50 [1]	pEC50 [2]	Ki [3] [nM]	Ki [4] [nM]	pEC50 [5]	pKi [6]	Ki [7] [nM]	Ki [8] [nM]	Ki (Adrenergic receptor beta) [nM]	pKi (D(1A) dopamine receptor)	pKi (D(2) dopamine receptor)
COc1cc(N)c(Cl)cc1C(=O)N[C@@H]1C2CC3CN(C2)CC31 (some centres not stated)	Not Active	–	–	–	–	–	–	–	–	–	–
COc1cc(N)c(Cl)cc1C(=O)NC[C@@H]1CCN2CCC[C@@]12C (racemic)	–	6.35	–	–	–	–	–	–	–	–	–
COc1cc(N)c(Cl)cc1C(=O)NC[C@@H]1CCN2CCC[C@@H]12	–	7.64	> 10000	> 10000	7.18	6.82	> 10000	> 10000	> 10000	< 5.00	< 5.00

Reference: ChEMBL document CHEMBL1146779, “Bridgehead-methyl analog of SC-53116 as a 5-HT4 agonist” (Bioorg Med Chem Lett, 2004)
